Laboratory results from a compilation of properties of binary mixtures (doi:10.1016/j.jct.2020.106320).

Experiment: xn = mol fraction of the nth substance listed
Conditions: 100 kPa

CCO + CC[n+]1ccn(CCOC)c1.N#C[S-]
viscosity (288.15 K, x2 = 0): 1.319 mPa·s | viscosity (293.15 K, x2 = 0): 1.194 mPa·s | viscosity (298.15 K, x2 = 0): 1.085 mPa·s | viscosity (303.15 K, x2 = 0): 0.988 mPa·s | viscosity (313.15 K, x2 = 0): 0.826 mPa·s | viscosity (318.15 K, x2 = 0): 0.757 mPa·s

CC[n+]1ccn(CCOC)c1.N#C[S-] + CCO
viscosity (288.15 K, x1 = 0.1): 2.39 mPa·s | viscosity (288.15 K, x1 = 0.1999): 3.97 mPa·s | viscosity (288.15 K, x1 = 0.3002): 6.39 mPa·s | viscosity (288.15 K, x1 = 0.3995): 10.15 mPa·s | viscosity (288.15 K, x1 = 0.5001): 15.11 mPa·s | viscosity (288.15 K, x1 = 0.6): 24.1 mPa·s | viscosity (288.15 K, x1 = 0.7): 33.1 mPa·s | viscosity (288.15 K, x1 = 0.797): 53.1 mPa·s | viscosity (288.15 K, x1 = 0.8964): 70.8 mPa·s | viscosity (288.15 K, x1 = 1): 93.1 mPa·s | viscosity (293.15 K, x1 = 0.1999): 3.53 mPa·s | viscosity (293.15 K, x1 = 0.3002): 5.59 mPa·s | viscosity (293.15 K, x1 = 0.5001): 12.79 mPa·s | viscosity (293.15 K, x1 = 0.7): 27.1 mPa·s | viscosity (293.15 K, x1 = 0.8964): 55.6 mPa·s | viscosity (293.15 K, x1 = 1): 70.8 mPa·s | viscosity (298.15 K, x1 = 0.1): 1.95 mPa·s | viscosity (298.15 K, x1 = 0.1999): 3.16 mPa·s | viscosity (298.15 K, x1 = 0.3995): 7.64 mPa·s | viscosity (298.15 K, x1 = 0.5001): 10.96 mPa·s | viscosity (298.15 K, x1 = 0.6): 17.44 mPa·s | viscosity (298.15 K, x1 = 0.7): 22.7 mPa·s | viscosity (298.15 K, x1 = 0.797): 34.3 mPa·s | viscosity (298.15 K, x1 = 0.8964): 44.3 mPa·s | viscosity (298.15 K, x1 = 1): 55.8 mPa·s | viscosity (303.15 K, x1 = 0.1): 1.77 mPa·s | viscosity (303.15 K, x1 = 0.1999): 2.85 mPa·s | viscosity (303.15 K, x1 = 0.3995): 6.7 mPa·s | viscosity (303.15 K, x1 = 0.5001): 9.52 mPa·s | viscosity (303.15 K, x1 = 0.6): 14.4 mPa·s | viscosity (303.15 K, x1 = 0.7): 19.4 mPa·s | viscosity (303.15 K, x1 = 0.797): 28.2 mPa·s | viscosity (308.15 K, x1 = 0.1): 1.613 mPa·s | viscosity (308.15 K, x1 = 0.3002): 3.97 mPa·s | viscosity (308.15 K, x1 = 0.3995): 5.93 mPa·s | viscosity (308.15 K, x1 = 0.5001): 8.32 mPa·s | viscosity (308.15 K, x1 = 0.6): 12.12 mPa·s | viscosity (313.15 K, x1 = 0.1): 1.476 mPa·s | viscosity (313.15 K, x1 = 0.1999): 2.34 mPa·s | viscosity (313.15 K, x1 = 0.3002): 3.58 mPa·s | viscosity (313.15 K, x1 = 0.5001): 7.34 mPa·s | viscosity (313.15 K, x1 = 0.6): 10.4 mPa·s | viscosity (313.15 K, x1 = 0.7): 14.37 mPa·s | viscosity (313.15 K, x1 = 0.8964): 24.7 mPa·s | viscosity (313.15 K, x1 = 1): 29.7 mPa·s | viscosity (318.15 K, x1 = 0.1): 1.355 mPa·s | viscosity (318.15 K, x1 = 0.3002): 3.25 mPa·s | viscosity (318.15 K, x1 = 0.3995): 4.71 mPa·s | viscosity (318.15 K, x1 = 0.5001): 6.51 mPa·s | viscosity (318.15 K, x1 = 0.6): 9.03 mPa·s | viscosity (318.15 K, x1 = 0.7): 12.25 mPa·s | viscosity (318.15 K, x1 = 0.797): 17.33 mPa·s | viscosity (318.15 K, x1 = 0.8964): 20.9 mPa·s | viscosity (318.15 K, x1 = 1): 24.9 mPa·s
